Experimental findings from patent publication US9248089B2, “Peptide-based compounds as inhibitors of neurotransmitter secretion” (GRF (WUHAN) BIOTECHNOLOGY INC., priority 2011, dated 2016) are described below.

This series has as its system HEK293 cells. Nature of the series: HEK293 cell assay (evaluation of biological degradation, HPLC of supernatant). Particulars: for Degradation after incubation with HEK293 cells: 37° C., 1.0×10^6 HEK293 cells; for Degradation after incubation with HEK293 cells / Degradation pattern/profile compared with another compound: HPLC condition D; for Degradation pattern/profile compared with another compound: incubation with HEK293 cells. The series is classed as in vitro ADME, Human. The protocol: The Human Embryonic Kidney 293 (HEK293) cells may be cultured in suspension. After the HEK293 cells are collected, the cells may be washed 3 times with PBS buffer before the assay.
The stock solution of peptide-based compounds may be made by dissolving the compound in PBS buffers or in DMSO. Other solutions or solvents may be used to dissolve the peptide-based compounds for this assay.
2. Add 10 μL of the stock solution of the peptide-based compound prepared above so that the final concentration of the peptide-based compound is around 1/10th of that of the stock.
3. Incubate the resulting mixture at 37° C. for 3, 5, 10, 20, or 30 min.
4. Remove the cells by centrifugation.
5. Collect an aliquot of the supernatant solution (20 μL) and loaded it onto a reverse-phase HPLC column (3.9×150 Nova-Pak C18, Waters, Mass., USA) on an HPLC system (125 solvent module, System Gold, Beckman, Calif., USA). Peptide peaks may be detected at the wavelength of 220 nm (Diode Array Detector module 168, Beckman, Calif., USA).

Peptide text beside a SMILES is read from it.

On to `COC(=O)CC[C@H](NC(C)=O)C(=O)N[C@@H](CCC(=O)OC)C(=O)N[C@@H](CCSC)C(=O)N[C@@H](CCC(N)=O)C(=O)N[C@@H](CCCNC(=N)N)C(=O)N[C@@H](CCCNC(=N)N)C(N)=O` [Compound 1, Ac-Glu(OMe)-Glu(OMe)-Met-Gln-Arg-Arg-NH2] (Ac-E(OMe)E(OMe)MQRR-NH2), for which the “Degradation after incubation with HEK293 cells” value (“Degradation after incubation” below) is “degraded to Compound 2 and at least one new fragment” (3 min incubation); “fully degraded to at least one new fragment” (30 min incubation). In addition, the “Detectable Compound 2 as degradation intermediate” value (30 min incubation with HEK293 cells) is given as “No Compound 2 was detectable”.

Consider `COC(=O)CC[C@H](NC(C)=O)C(=O)N[C@@H](CCC(=O)OC)C(=O)N[C@@H](CCSC)C(=O)N[C@@H](CCC(N)=O)C(=O)N[C@@H](CCCNC(=NC(=O)OC(C)(C)C)NC(=O)OC(C)(C)C)C(=O)N[C@@H](CCCNC(=NC(=O)OC(C)(C)C)NC(=O)OC(C)(C)C)C(N)=O` [Compound 3, Ac-Glu(OMe)-Glu(OMe)-Met-Gln-Arg(Boc)2-Arg(Boc)2-NH2], for which the “Degradation pattern/profile compared with another compound” value is reported as “degraded in the same pattern as Compound 2”. The “Detectable Compound 2 as degradation intermediate” value (5 min incubation with HEK293 cells) was “did not produce detectable intermediacy of Compound 2”. Besides, for the setting “5 min incubation”, the “Degradation after incubation” value is on record as “degraded to at least two fragments”. Also, the “Degradation after incubation” value (10 min incubation) is recorded as “completed degraded to the two fragments”.

As to “Ac-EEMQRR-NH2 [Compound 2, Ac-Glu-Glu-Met-Gln-Arg-Arg-NH2, reference compound]”, the “Degradation pattern/profile compared with another compound” value is reported as “did not give the same degradation pattern as Compound 1”. Further, the “Degradation after incubation” value (10 min incubation) is given as “degraded to at least two fragments”.
